Experimental data: publication PMC5931191, “Reversible stapling of unprotected peptides via chemoselective methionine bis-alkylation/dealkylation” (Chemical Science, 2018)
“Also recorded” adds a separate entry of the source. Where a SMILES comes first, the peptide text is derived from it.

What was measured:
trypsin = experiment: In vitro trypsin digestion assay; settings: peptide 1 mM in PBS pH 7.4, 100 µL + 1 µL trypsin (1 mg/mL) (1%), 37 °C, different time intervals, LC/MS peak detection at 254 nm; compared with linear peptide 1; Fig. 3C
Description: LC-MS spectra were carried out on SHIMAZU LC-MS 8030 (ESI-MS) in positive ion mode.
trypsin (1 mg/mL) was added and incubated at 37°C. At different time interval, the solution was mixed with 12%
trichloroacetic acid (H2O/CH3CN: 2:1) to inactivate the trypsin.
the peptide remaining was examined by LC/MS with a grace smart C18 250× 4.6mm column, using a 4% per minute
linear gradient from 10% to 70% acetonitrile over 15min. The amount of starting material left in each sample was

U2OS cells [1] = experiment: LDH release assay
Description: concentration of 10 μM in FBS free medium and incubated with the cells for 4 hours at 37°C. After that, the medium
was removed and the cells were gently washed 2 times with PBS and then fixed with 4% paraformaldehyde (Alfa
Aesar, MA) in PBS for 10 minutes. The cells were again washed 2 times with PBS and stained with 1μg/ml 4', 6-
diamidino-2-phenylindole (DAPI) (Invitrogen, CA) in PBS for 5 minutes. Images of peptide localization in cells were
taken on PerkinElmer confocal microscopy under the same parameters and processed using Volocity software package
LDH release was performed by using Cytotoxicity LDH Assay Kit-WST®. Briefly, ~10000 cells suspension was added
to each well of the 96 well plate and allowed to grow overnight. The cells were then incubated with the fresh medium
containing serial dilution of peptides at 37 °C for 4h. Lysis Buffer was added as positive control at 37 °C for 30min.
After that, 50μL of the incubation medium were taken out to another 96 well plate followed the addition of 50μL Working
Solution and incubated for 30min at room temperature. Then 25μL Stop Solution was added into the wells. The
absorbance at 490 nm was measured by a microplate reader (Perkin Elmer, Envision, 2104 Multilabel Reader). The
LDH release activity was calculated by (LDH% samples-LDH% blank) / (LDH% positive control -LDH% blank).

[2] = Met bis-alkylation (bis-sulfonium staple) with linker c, 1,4-bis(bromomethyl)benzene (1.2 equiv), 1% HCOOH (pH ~3), 24 h; settings: the molecule shown is the open-chain precursor, 25-membered ring, MeCN/H2O 30:70 (SI: 1:3) + 1% HCOOH, small amount of DMF, 10.0 mM, 25.0 °C
[3] = target: T1, Recombinant Human Caspase-3 protein (Homo sapiens, UniProt P42574); experiment: In vitro caspase-3 AMC release assay; assay type: biochemical; settings: peptide 5 µM, caspase-3 0.4 ng/µL, 1 h, read every 5 min, Ex 340 nm / Em 450 nm, triplicates; Fig. 5C
T1 construct: purchased RnD SYSTEMS
T1 sequence (P42574 29-175 limits assumed): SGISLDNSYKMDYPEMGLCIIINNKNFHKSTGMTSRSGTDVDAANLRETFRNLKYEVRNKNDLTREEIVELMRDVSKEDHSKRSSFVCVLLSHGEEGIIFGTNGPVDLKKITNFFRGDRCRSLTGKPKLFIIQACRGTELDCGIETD
T1 sequence (P42574 176-277 limits assumed): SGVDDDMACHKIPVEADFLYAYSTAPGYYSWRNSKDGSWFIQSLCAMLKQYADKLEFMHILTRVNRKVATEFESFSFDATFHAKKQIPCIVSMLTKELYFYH
Description: 8. AMC release Assays.
In vitro Caspase-3 assay:
(§1) AMC conjugated peptides 16-19 (50 μL, 5μM)
All experiments were performed in triplicates with […]
blank control) to induce the activity of caspase-3. […]
(§2) collected by centrifugation.
(§3) Besides, an induced well pretreated with the caspase pan-

[4] = Dealkylation of cyclic peptides with 2-mercaptopyridine (regeneration of linear peptide); assay type: physicochemical; settings: chemical stability under reductive conditions; 2-mercaptopyridine (10 equiv., 10 mM) in PBS pH 7.4, 37 °C, different time points, HPLC / LC-MS; Fig. 3A, B
Description: in linear gradient mixtures.
1. Preparation of alkylated sulfonium peptides[1]
The alkylated reagent (1.2 equiv)
Then the solution was purified by reversed […]
peptide can be gradually regenerated to the linear peptide.
To 100 µL of each solution 1 µL […]
linear gradient from 10% to 70% acetonitrile over 15min. […]
quantified by LC/MS-based peak detection at 254nm.
4. Flow Cytometry Analysis
T47D cells were seeded in
37°C), washed with PBS, and resuspended in PBS. […]
cytometer (Becton Dickinson) and CellQuest Pro (or CFlow plus).

HeLa cells = experiment: Flow cytometry cellular uptake in HeLa cells; assay type: cell-based; settings: for cellular uptake efficiency (flow cytometry) in the presence of serum: 10% fetal bovine serum, 5, 10, 20 µM, Fig. S5
U2OS cells [5] = experiment: Flow cytometry cellular uptake in U2OS cells; assay type: cell-based; settings: FITC-labelled peptides 10 µM, 4 h, 37 °C, FACS, Fig. S4 (legend not available)
U2OS cells [6] = experiment: AMC release (caspase-3) assay in live U2OS cells; assay type: cell-based; settings: ABT-737 10 µM 1 h, peptide 5 µM, after incubation for 12 hours, Fig. S9
Description: (§4) experiments were performed in triplicates with consistent results.
(§5) 100μl U2OS cells were cultured in 96 well plate (~5000 cells / well) overnight, then 0.1 μl of ABT-737 stock solution (10 mM, 1 h) was added into half of the wells to induce apoptosis. After that, peptide 16, 17i, 18i, and 19 stock solution (final concentration of 5 µM) were added into the cells. At different time points, the fluorescence of the wells treated […]
(§6) difference in fluorescence yields between ABT-737 treated and untreated cells was plotted as a function of time to represent the caspase-3 activities in live cells.
(§7) U2OS cells were cultured in 24 well plates with imaging dishes (50000 cells/well) and then treated with peptide 17i, 18i and 19 (100µM) in FBS free medium for 4h. Then the medium was removed and the cells were cultured with a fresh medium containing 10mM GSH for 8h, 16h, or 24h. The release efficiency of AMC was monitored using fluorescence microscopy with pseudo-colored in blue as described.
(§8) Table S1. Conversion of peptide 1 to peptide 1a in different solvents at different time intervals.
(§9) Table S2. Peptide sequences and observed masses following HPLC purification. Calculated and Found m/z are presented as [M+H] + / [M/2+H] +/ [M/3+H] +/ [M/4+H] +.
(§10) Peptide Sequence Calculated mass Observed mass
(§11) (1 picture or pasted object on this page, not shown here)

U2OS cells [7] = experiment: Confocal microscopy of AMC release in U2OS cells; assay type: cell-based
Description: as §4, §5, §6, §7, §8, §9, §10, §11

[8] = target: T2, caspase-3 in U2OS cell lysates (Homo sapiens, UniProt P42574); experiment: AMC release assay in U2OS cell lysate; assay type: biochemical; settings: peptide 5 µM, 24 h, Fig. 5D
T2 construct: endogenous in cells; host or cells: U2OS cells, ABT-737-induced, lysed
T2 sequence (P42574 29-175 limits assumed): T1 sequence (P42574 29-175 limits assumed)
T2 sequence (P42574 176-277 limits assumed): T1 sequence (P42574 176-277 limits assumed)
Description: 8. AMC release Assays. […]
as §1
All experiments were performed in triplicates with
blank control) to induce the activity of caspase-3.
as §2, §3

CC(=O)N[C@@H](Cc1c[nH]c2ccccc12)C(=O)N[C@H]1CC[S+](C)Cc2ccc(cc2)-c2ccc(cc2)C[S+](C)CC[C@@H](C(N)=O)NC(=O)[C@H](CC(=O)O)NC(=O)CNC(=O)[C@H](CCCNC(=N)N)NC1=O (stereo partly drawn) [1i]
trypsin stability (peptide remaining) (trypsin): significantly enhanced the trypsin stability

CCCC[C@@H]1NC(=O)[C@H](CC(=O)O)NC(=O)[C@@H](NC(C)=O)CSCc2ccc(cc2)-c2ccc(cc2)CSC[C@H](C(=O)N[C@@H](CC(=O)O)C(=O)Nc2ccc3c(C)cc(=O)oc3c2)NC1=O [18i] (HELM PEPTIDE1{[ac].C.D.[Nle].[dC].D.[Cc1cc(=O)oc2cc(N[*:1])ccc12]}|CHEM1{[c1cc(-c2ccc(C[*:2])cc2)ccc1C[*:1]]}$PEPTIDE1,CHEM1,2:R3-1:R1|PEPTIDE1,CHEM1,5:R3-1:R2$$$V2.0)
membrane toxicity (LDH release) (U2OS cells [1]; 160 µM, 4 h, 10% serum, Fig. S8): negligible membrane toxicity

CSCC[C@H](NC(=O)CNC(=O)[C@H](Cc1ccc(O)cc1)NC(=O)[C@@H]1CCCN1C(=O)[C@H](CC[S+](C)Cc1ccc(CBr)cc1)NC(=O)[C@H](Cc1c[nH]c2ccccc12)NC(C)=O)C(=O)N[C@@H](C)C(N)=O (stereo partly drawn) [Ac-Trp-Met-Pro-Tyr-Gly-Met-Ala-NH2]
ring closure, conversion by HPLC [2]: 81%

CCCC[C@H](NC(=O)[C@H](CC(=O)O)NC(=O)[C@H](CCSC)NC(C)=O)C(=O)N[C@@H](CCSC)C(=O)N[C@@H](CC(=O)O)C(=O)Nc1ccc2c(C)cc(=O)oc2c1 [compound 17] (HELM PEPTIDE1{[ac].M.D.[Nle].M.D.[Cc1cc(=O)oc2cc(N[*:1])ccc12]}$$$$V2.0)
AMC release / susceptibility to caspase-3 in vitro [3]: quick degradation

CCCC[C@H](NC(=O)[C@H](CC(=O)O)NC(=O)[C@H](CCCNC(=N)N)NC(=O)[C@H](CCCNC(=N)N)NC(=O)[C@H](CCCNC(=N)N)NC(=O)[C@H](CCCNC(=N)N)NC(=O)[C@H](CCCNC(=N)N)NC(=O)[C@H](CCCNC(=N)N)NC(=O)[C@H](CCCNC(=N)N)NC(=O)[C@H](CCCNC(=N)N)NC(=O)[C@H](CCCNC(=N)N)NC(C)=O)C(=O)N[C@@H](CC)C(=O)N[C@@H](CC(=O)O)C(=O)Nc1ccc2c(C)cc(=O)oc2c1 [compound 19] (HELM PEPTIDE1{[ac].R.R.R.R.R.R.R.R.R.D.[Nle].[Abu].D.[Cc1cc(=O)oc2cc(N[*:1])ccc12]}$$$$V2.0)
membrane lysis effect (U2OS cells [1]; Fig. S7B (confocal, 100 µM) and S8 (LDH release, 4 h, 10% serum)): membrane lysis effect

Ac-W-(cyclo-c)-MRGDM-NH2 (sidechain bridge or staple) [1c, peptide 1 Met bis-alkylated with linker c]
regeneration of the parental linear peptide 1 (dealkylation) [4]: time-dependent regeneration of the parental peptide 1

Ac-W-(cyclo-d)-MRGDM-NH2 (sidechain bridge or staple) [1d, peptide 1 Met bis-alkylated with linker d]
regeneration of the parental linear peptide 1 (dealkylation) [4]: time-dependent regeneration of the parental peptide 1

FITC-βA-(cyclo-a)-MRRRM-NH2 (sidechain bridge or staple) [11a, peptide 11 cyclized using linker a]
cellular uptake efficiency (flow cytometry) in the presence of serum (HeLa cells): same tendency as in the absence of serum

FITC-βA-(cyclo-c)-MRRRM-NH2 (sidechain bridge or staple) [11c, peptide 11 cyclized using linker c]
cellular uptake efficiency (flow cytometry) in the presence of serum (HeLa cells): same tendency as in the absence of serum
cellular uptake efficiency (flow cytometry) (HeLa cells; FITC-labelled peptides 10 µM, 4 h, 37 °C, absence of serum, trypsin wash, FACS, Fig. 4C): best uptake; also recorded: better cellular uptake than the thioether cyclic peptide
cellular uptake efficiency (flow cytometry) (U2OS cells [5]): best uptake

FITC-βA-(cyclo-i)-MRRRM-NH2 (sidechain bridge or staple) [11i, peptide 11 cyclized using linker i]
cellular uptake efficiency (flow cytometry) in the presence of serum (HeLa cells): same tendency as in the absence of serum

cyclo-i-Met-Asp-Nle-Met-Asp-AMC (sidechain bridge or staple) [17i, Met bis-alkylated peptide 17 with linker i]
AMC release / susceptibility to caspase-3 in vitro [3]: not a suitable substrate for caspase-3
caspase-3 activity (AMC release) in live cells (U2OS cells [6]): higher caspase-3 activity than the linear peptide 16, while lower than 19
AMC fluorescence in cells (confocal) in the presence of serum (U2OS cells [7]; peptide 50 µM 4 h with 10% fetal bovine serum, GSH 10 mM 16 h, ABT-737 10 µM 1 h, Fig. S7A): weaker fluorescence intensity
AMC fluorescence in cells (confocal, 405 nm excitation) (U2OS cells [7]; peptide 100 µM 4 h in FBS free medium, then 10 mM GSH 8, 16 or 24 h, then ABT-737 10 µM 1 h, Fig. 5E, S7B): lighted gradually
AMC release in cell lysate pretreated with pan caspase inhibitor FMK ([8]; U2OS lysate, FMK 100 µM): reduced significantly
time-dependent AMC release in cell lysate ([8]; lysate of U2OS cells induced with ABT-737 (10 µM, 1 h), without FMK, triplicates): increased gradually during 24 h
